Patent US10774049B2, “PU.1 inhibitors” (Albert Einstein College of Medicine, priority 2016, dated 2020)
Structures can show the parent of a compound that is named as a salt.

What was measured:
[1] = system: primary human AML cells; experiment: Primary human AML mononuclear cells in semi-solid media (viable cells, colonies, apoptosis); format: cell-based; conditions: for mean decrease in number of viable cells / mean decrease of clonogenic capacity: in comparison to vehicle; for average increase of apoptotic cell fraction: vs vehicle
Procedure: FIG. 4A-4G. PU.1 inhibition decreases cell growth and increases apoptosis of primary human AML cells. (A-C) Transduced GFP+ human primary mononuclear AML cells were plated in semi-solid media (150 000 cells per ml of methyl); colony number, number of viable cells and apoptotic cells were assessed after 14 days of culture. (A, B) Clonogenic capacities and number of viable cells after transduction with shPU.1_1 and shPU.1_2 (n=7). (C) Apoptotic cells (Annexin-V+Dapi−) fraction after transduction with shPU.1_1 and shPU.1_2 (n=7). (D-F) Human primary mononuclear AML cells were plated in semi-solid media (150 000 cells per ml of methyl) containing the PU.1 inhibitors DB1976, DB2115 and DB2313; colony number, number of viable cells and apoptotic cells were assessed after 14 days of culture. (D-E) Clonogenic capacities (n=9) and number of viable cells (n=8) after treatment. (F) Apoptotic cells (Annexin-V+Dapi−) fraction after treatment (n=8). […] (A-G) Data represent means±SD, each AML sample is represented by an individual dot. Fold change compared to shCtrl or Vehicle is shown.
To determine whether PU.1 inhibition has an effect on primary cells from AML patients, we seeded mononuclear cells from AML patients in semi-solid media for 2 weeks and assessed the number of colonies, the number of viable cells and the proportion of apoptotic cells. […] At the same time, the proportion of apoptotic cells increased on average of 2-fold upon knockdown of PU.1 in primary human AML cells with the more efficient shRNA (shPU.1_2) (FIG. 1F).
We also explored the effect of the small molecule PU.1 inhibitors on primary human AML cells, and treated 11 samples from AML patients with PU.1 inhibitors. PU.1 inhibitors led to significant decreases in the number of viable cells (mean decrease: 81% for DB1976, 68% for DB2115, 72% for DB2313) (FIG. 3E), and clonogenic capacity (mean decrease of 36% for DB1976, 45% for DB2115, 60% for DB23313), in comparison to vehicle (FIG. 3F). The apoptotic cell fraction increased on average by 1.5-fold with DB1976, 2.2-fold with DB2115 and 2.5-fold with DB2313 (FIG. 3G).

[2] = target: λB promoter DNA sequence; experiment: SPR binding of compounds to immobilized λB promoter DNA; design: species or system murine; conditions: biosensor-SPR, 1:1 complex
Procedure: FIG. 8A-8C depicts (A) DB2313 synthesis (B-C) Representative SPR sensorgrams for compounds binding to the immobilized λB promoter DNA sequence: (B) DB2313 (KD=7±2 nM) and (C) DB1976 (KD=5±2 nM) as previously described (Munde et al., 2014). The solid black lines are best fit values for global kinetic fitting of the results with a single binding site function. Similar experiments with DB2115 gave a KD=1±2 nM. The plots are for the SPR signal (RU) versus time from injection of the compound over the sensorchip. From 0 to 180 seconds, compound is being injected (association) and after that only buffer flows over the chip. (B) From top to bottom: 10, 30, 40 nM. (C) From top to bottom: 5, 10, 15 nM.
To test whether these heterocyclic diamidines targeted cognate DNA binding sites for PU.1, we assessed binding to the λB motif by biosensor-surface plasmon resonance (SPR). Duplex DNA harboring the λB motif was immobilized on a streptavidin functionalized sensor chip with a dextran surface as described. The DNA was 5′-end labeled with biotin and captured on the sensor chip. Based on the known strong AT selectivity of these heterocyclic diamidines, they are expected to bind to the AT rich λB promoter sequence at the 5′ side of the 5′-GGAA-3′ PU.1 conserved recognition sequence. Sensorgrams obtained from the compounds-DNA association and disassociation reactions were used to determine equilibrium dissociation constants. The KD values indicate strong binding by all three compounds to form a 1:1 complex, and a binding K^D of 1±2 nM for DB2115 and 4-7 nM for DB1976 and DB2313 with the λB promoter.

[3] = system: PU.1 transactivation; experiment: GFP reporter expression in bone marrow mononuclear cells of PU.1-GFP knock-in reporter mouse; format: cell-based; conditions: PU.1-GFP knock-in bone marrow mononuclear cells
Excerpt: To assess on-target activity of our inhibitors in AML cells, we measured transcript levels of well-known PU.1 targets in PU.1 URE^−/− AML cells. It has been shown that PU.1 positively regulates Csf1r, Junb, and autoregulates itself, whereas it represses E2f1. In line with this, we found a decrease in Csf1r, Junb, and PU.1 transcript expression and an increase in E2f1 expression upon treatment with DB2115, or DB2313 (FIG. 4A, left panel). As Csf1r is one of the most sensitive PU.1 targets in myeloid cells, we assessed its expression at different time points (1 h, 4 h, 8 h and 24 h) after drug treatment. […] Furthermore, treatment of bone marrow mononuclear cells isolated from a PU.1-GFP knock-in reporter mouse model led to a decrease in GFP reporter expression after treatment with DB1976, DB2115, or DB2313, further confirming a direct effect of the compounds on PU.1 transactivation (FIG. 4B), and consistent with PU.1 positive autoregulation.

Compound | mean decrease in number of viable cells [1] | mean decrease of clonogenic capacity [1] | average increase of apoptotic cell fraction [1] | Kd [2] | GFP reporter expression [3]
N=C(N)c1ccc2nc(-c3ccc(-c4nc5ccc(C(=N)N)cc5[nH]4)[se]3)[nH]c2c1 [DB1976] | 81% | 36% | 1.5 fold | 5 ± 2 nM | decrease
N=C(N)c1ccc2nc(-c3ccc(OCCCCOc4ccc(-c5nc6ccc(C(=N)N)cc6[nH]5)cc4)cc3)[nH]c2c1 [DB2115] | 68% | 45% | 2.2 fold | 1 ± 2 nM | decrease
CC(C)NC(=N)c1ccc2nc(-c3ccc(OCc4cccc(COc5ccc(-c6nc7ccc(C(=N)NC(C)C)cc7[nH]6)cc5)c4F)cc3)[nH]c2c1 [DB2313, 3-Bis{4[4(5)-N-isopropylamidinobenzimidazolyl]phenoxymethyl]}-2-fluorobenzene tetrahydrochloride] | 72% | 60% | 2.5 fold | 7 ± 2 nM | decrease
